Experimental data published in PMC6263802 (Journal of natural products, 2018).
Read-outs that look alike come from different tables or passages of the source.

Columns and labels:
[1] = molecular target: hBChE (Homo sapiens, UniProt P06276); experiment: Inhibition of human butyrylcholinesterase with butyrylthiocholine; type: biochemical; conditions: for inhibition at 10 µM: read-out: hBChE % Inhibition at 10μM
[2] = molecular target: hAChE (Homo sapiens, UniProt P22303); experiment: Inhibition of human acetylcholinesterase with acetylthiocholine; type: biochemical; conditions: for inhibition at 10 µM: read-out: hAChE % Inhibition at 10μM
Sequence of hAChE (P22303 32-614): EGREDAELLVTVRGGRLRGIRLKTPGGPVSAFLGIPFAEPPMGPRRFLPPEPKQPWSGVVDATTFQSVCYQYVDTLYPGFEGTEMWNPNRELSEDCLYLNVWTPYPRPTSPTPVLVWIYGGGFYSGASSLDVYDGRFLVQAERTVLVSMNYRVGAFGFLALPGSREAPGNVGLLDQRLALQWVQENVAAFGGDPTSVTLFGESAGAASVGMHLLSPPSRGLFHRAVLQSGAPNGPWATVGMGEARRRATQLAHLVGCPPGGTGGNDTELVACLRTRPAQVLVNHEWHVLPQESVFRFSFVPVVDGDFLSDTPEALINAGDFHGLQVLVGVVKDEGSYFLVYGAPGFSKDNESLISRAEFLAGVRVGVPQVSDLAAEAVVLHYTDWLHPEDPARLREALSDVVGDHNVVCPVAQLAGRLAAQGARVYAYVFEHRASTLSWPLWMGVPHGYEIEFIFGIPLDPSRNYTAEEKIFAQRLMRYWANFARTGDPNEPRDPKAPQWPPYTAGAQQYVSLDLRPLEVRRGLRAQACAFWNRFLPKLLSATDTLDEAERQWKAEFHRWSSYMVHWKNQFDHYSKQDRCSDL

[3] = molecular target: T1, hiCE (human intestinal CE; CES2) (Homo sapiens, UniProt O00748); experiment: Inhibition of hiCE with o-NPA as substrate, spectrophotometric assay; type: biochemical; conditions: compared to the parent tanshinone
T1 sequence (O00748 27-555 limits assumed): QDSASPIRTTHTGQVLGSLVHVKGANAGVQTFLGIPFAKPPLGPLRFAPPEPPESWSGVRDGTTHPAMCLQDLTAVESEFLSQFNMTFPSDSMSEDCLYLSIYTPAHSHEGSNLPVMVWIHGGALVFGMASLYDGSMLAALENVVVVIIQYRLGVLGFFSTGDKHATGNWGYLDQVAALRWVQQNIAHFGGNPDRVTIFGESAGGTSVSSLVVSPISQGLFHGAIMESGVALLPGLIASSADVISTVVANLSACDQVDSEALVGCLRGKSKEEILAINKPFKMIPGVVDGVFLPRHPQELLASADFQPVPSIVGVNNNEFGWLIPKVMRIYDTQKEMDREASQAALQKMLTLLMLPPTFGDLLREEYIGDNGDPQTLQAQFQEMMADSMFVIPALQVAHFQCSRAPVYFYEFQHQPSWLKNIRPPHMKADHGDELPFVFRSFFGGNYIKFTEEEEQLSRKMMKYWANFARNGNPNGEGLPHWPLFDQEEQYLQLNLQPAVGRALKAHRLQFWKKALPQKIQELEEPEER

[4] = molecular target: T2, hCE1 (human liver CE; CES1) (Homo sapiens, UniProt P23141); experiment: Inhibition of hCE1 with o-nitrophenyl acetate; type: biochemical; conditions: for hCE1 (o-NPA) Fold increase in potency: compared to the parent tanshinone
T2 sequence (P23141 18-563 limits assumed): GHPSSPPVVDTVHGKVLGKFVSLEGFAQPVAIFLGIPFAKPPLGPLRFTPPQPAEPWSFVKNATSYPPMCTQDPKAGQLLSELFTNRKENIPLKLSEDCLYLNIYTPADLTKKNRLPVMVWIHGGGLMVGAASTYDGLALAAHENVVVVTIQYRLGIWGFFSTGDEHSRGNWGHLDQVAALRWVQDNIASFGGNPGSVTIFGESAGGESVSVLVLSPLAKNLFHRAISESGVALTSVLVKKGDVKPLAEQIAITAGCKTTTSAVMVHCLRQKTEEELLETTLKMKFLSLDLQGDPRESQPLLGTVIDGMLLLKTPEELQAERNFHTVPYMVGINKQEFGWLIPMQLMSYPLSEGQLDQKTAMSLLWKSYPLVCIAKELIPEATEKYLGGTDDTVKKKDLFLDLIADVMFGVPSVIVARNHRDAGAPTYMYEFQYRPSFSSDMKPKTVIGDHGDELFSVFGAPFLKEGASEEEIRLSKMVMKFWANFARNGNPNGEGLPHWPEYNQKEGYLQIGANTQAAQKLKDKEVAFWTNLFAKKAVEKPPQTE

[5] = molecular target: T3, hiCE (Homo sapiens, UniProt O00748); type: biochemical; conditions: after pre-incubation and removal of the small molecule
T3 sequence (O00748 27-555 limits assumed): T1 sequence (O00748 27-555 limits assumed)

[6] = molecular target: T4, hCE1 (Homo sapiens, UniProt P23141); type: biochemical; conditions: after pre-incubation and removal of the small molecule
T4 sequence (P23141 18-563 limits assumed): T2 sequence (P23141 18-563 limits assumed)

[7] = molecular target: T4, hCE1; experiment: MS analysis of hCE1 protein after incubation with small molecules; conditions: for Increase in mass of hCE1 after incubation: all three enzyme species, 4 at 10μM
[8] = tested on: U373MG cells expressing hCE1; experiment: Intracellular inhibition of oseltamivir hydrolysis; type: cell-based, human; conditions: 10μM inhibitor 10 min, then oseltamivir 20μM 30 min; versus DMSO
[9] = molecular target: T2, hCE1 (human liver CE; CES1); conditions: read-out: hCE1 (o-NPA) Ki ± SE; parent tanshinones, previously reported; cited from earlier work
[10] = hCE1 species of 61374 Da (first glycoform)
[11] = hCE1 species of 61537 Da (second glycoform)
[12] = hCE1 species of 61698 Da (third glycoform)

Sequence of hBChE (P06276 29-602): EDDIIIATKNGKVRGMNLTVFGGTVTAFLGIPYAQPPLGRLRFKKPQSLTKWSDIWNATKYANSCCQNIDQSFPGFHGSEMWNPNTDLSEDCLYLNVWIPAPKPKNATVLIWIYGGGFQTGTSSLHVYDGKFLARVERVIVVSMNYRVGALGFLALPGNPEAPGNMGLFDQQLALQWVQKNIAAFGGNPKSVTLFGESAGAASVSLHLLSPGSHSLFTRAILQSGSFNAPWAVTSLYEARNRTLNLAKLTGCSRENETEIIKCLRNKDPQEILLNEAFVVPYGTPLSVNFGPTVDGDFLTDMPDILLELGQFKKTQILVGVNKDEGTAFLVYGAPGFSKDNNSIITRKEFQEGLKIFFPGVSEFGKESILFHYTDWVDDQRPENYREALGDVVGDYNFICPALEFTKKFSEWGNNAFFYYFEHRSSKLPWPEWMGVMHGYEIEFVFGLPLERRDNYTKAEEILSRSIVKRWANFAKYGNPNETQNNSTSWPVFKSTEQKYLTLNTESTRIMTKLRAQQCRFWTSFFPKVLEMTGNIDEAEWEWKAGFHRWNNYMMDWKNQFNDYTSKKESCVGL

Row | SMILES | IC50 [1] | inhibition at 10 µM [1] | IC50 [2] | inhibition at 10 µM [2] | hiCE (o-NPA) Fold increase in potency [3] | hCE1 (o-NPA) Fold increase in potency [4] | Irreversibility of hiCE inhibition [5] | Irreversibility of hCE1 inhibition [6] | Reduction in oseltamivir hydrolysis (oseltamivir carboxylate formed) [8] | other results
1 | Cc1coc2c1C(=O)C(=O)c1c-2ccc2c(C)cccc12 [Compound 1, Tanshinone I] | > 10 µM | 6% | > 10 µM | 10% | – | – | – | – | – | –
2 | Cc1cccc2c1ccc1c3c(c(=O)oc(=O)c12)[C@@H](C)CO3 [Compound 6, 4,9-dimethyl-4,5-dihydrofuro[3,2-c]naphtho[2,1-e]oxepine-1,3-dione] | – | – | – | – | 193 fold | 111 fold | irreversible inhibition | irreversible inhibition | – | Observed mass of adduct [7, 10]: 288 Da; Observed mass of adduct [7, 11]: 289 Da; Observed mass of adduct [7, 12]: 282 Da
3 | O=S(=O)(F)Cc1ccccc1 [PMSF, phenylmethanesulfonyl fluoride, reference compound] | – | – | – | – | – | – | – | – | – | Increase in mass of hCE1 after incubation [7]: 154–157 Da
4 | C[C@H]1COC2=C1C(=O)C(=O)c1c2ccc2c1CCCC2(C)C [Compound 7, Crypto-tanshinone] | > 10 µM | 1% | 6.41 µM | 44% | – | – | – | – | – | –
5 | Cc1cccc2c1ccc1c3occ(C)c3c(=O)oc(=O)c21 [Compound 2, 4,9-dimethylfuro[3,2-c]naphtho[2,1-e]oxepine-1,3-dione] | – | – | – | – | 17,744 fold | 10,937 fold | irreversible inhibition | irreversible inhibition | more than 70% | –
6 | Cc1coc2c1c(=O)oc(=O)c1c3c(ccc12)C(C)(C)CCC3 [Compound 4, 4,9,9-trimethyl-9,10,11,12-tetrahydrofuro[3,2-c]naphtho[2,1-e]oxepine-1,3-dione] | – | – | – | – | 1,750 fold | 3,626 fold | irreversible inhibition | irreversible inhibition | more than 70% | IC50 [4]: 0.00106 µM; Irreversibility of hiCE inhibition ([5]; listed as A): irreversible enzyme inhibition; Irreversibility of hCE1 inhibition ([6]; listed as A): irreversible enzyme inhibition; Increase in mass of hCE1 after incubation [7]: 308–312 Da; Observed mass of adduct [7, 10]: 312 Da; Observed mass of adduct [7, 11]: 308 Da; Observed mass of adduct [7, 12]: 309.8 Da
7 | Cc1cccc2c3c(ccc12)C1=C(C(=O)C3=O)[C@@H](C)CO1 [Compound 5, Dihydro-tanshinone] | – | – | – | – | – | – | – | – | – | hBChE % Inhibition at 10μM ([1]; 10μM inhibitor): 5%; IC50 ([1]; read-out: hBChE IC50 ± SE, BTCh substrate): > 10 µM; Ki [9]: 0.398 ± 0.066 µM; hAChE % Inhibition at 10μM ([2]; 10μM inhibitor): 84%; IC50 ([2]; read-out: hAChE IC50 ± SE, ATCh substrate): 1.95 µM
8 | C[C@H]1COc2c1c(=O)oc(=O)c1c3c(ccc21)C(C)(C)CCC3 [Compound 8, 4,9,9-trimethyl-4,5,9,10,11,12-hexahydrofuro[3,2-c]naphtho[2,1-e]oxepine-1,3-dione] | – | – | – | – | 188 fold | 194 fold | irreversible inhibition | irreversible inhibition | more than 70% | IC50 [4]: 0.00133 µM; Irreversibility of hiCE inhibition ([5]; listed as B): irreversible enzyme inhibition; Irreversibility of hCE1 inhibition ([6]; listed as B): irreversible enzyme inhibition
9 | Cc1coc2c1C(=O)C(=O)c1c-2ccc2c1CCCC2(C)C [Compound 3, Tanshinone IIA] | > 10 µM | 1% | > 10 µM | 4% | – | – | – | – | – | –
